According to PMC4890880 (ACS infectious diseases, 2016):
Read-outs that look alike come from different tables or passages of the source.

How the values were obtained:
HepG2-A16-CD81EGFP cells = details: sheet 2nd round; for IC50: read-out: Tox_IC50, HepG2 cytotoxicity; for Tox_max_inhibition (%): maximal inhibition in dose response
[1] = test system: Plasmodium berghei (Pb-Luc) exoerythrocytic-stage parasites; details: for normalized signal at concentration 10 / normalized signal at concentration 0.000508053 / normalized signal at concentration 0.00152416 / normalized signal at concentration 0.00457247 / normalized signal at concentration 0.0137174 / normalized signal at concentration 0.0411523 / normalized signal at concentration 0.123457 / normalized signal at concentration 0.37037 / normalized signal at concentration 1.11111 / normalized signal at concentration 3.33333: fraction of control; for IC50: read-out: PbLuc_IC50; for IC50 / PbLuc_max_inhibition (%): sheet 2nd round; for PbLuc_max_inhibition (%): maximal inhibition in dose response
[2] = Pb-Luc exoerythrocytic stage, 10-point dose response, top concentration 10
[3] = second series of columns (replicate)

COc1cccc(CN2[C@H](CO)[C@@H](c3ccccc3)C23CN(Cc2ccccc2OC)C3)c1 [BRD-K58149752-001-01-9]
IC50 (HepG2-A16-CD81EGFP cells): > 10 µM
Tox_max_inhibition (%) (HepG2-A16-CD81EGFP cells): 12%
normalized signal at concentration 10 ([1]; first series of dose-response columns): 0.43
normalized signal at concentration 0.000508053 ([1]; first series): 0.95
normalized signal at concentration 0.00152416 ([1]; first series): 0.91
normalized signal at concentration 0.00457247 ([1]; first series): 0.80
normalized signal at concentration 0.0137174 ([1]; first series): 0.89
normalized signal at concentration 0.0411523 ([1]; first series): 0.73
normalized signal at concentration 0.123457 ([1]; first series): 1.00
normalized signal at concentration 0.37037 ([1]; first series): 0.78
normalized signal at concentration 1.11111 ([1]; first series): 1.22
normalized signal at concentration 3.33333 ([1]; first series): 1.08
IC50 ([1]; Broad compounds, dose response): > 10 µM
normalized signal at concentration 10 ([1]; second series of dose-response columns): 0.60
normalized signal at concentration 0.000508053 ([1]; second series): 0.82
normalized signal at concentration 0.00152416 ([1]; second series): 0.84
normalized signal at concentration 0.00457247 ([1]; second series): 0.88
normalized signal at concentration 0.0137174 ([1]; second series): 0.90
normalized signal at concentration 0.0411523 ([1]; second series): 1.01
normalized signal at concentration 0.123457 ([1]; second series): 0.92
normalized signal at concentration 0.37037 ([1]; second series): 0.85
normalized signal at concentration 1.11111 ([1]; second series): 0.92
normalized signal at concentration 3.33333 ([1]; second series): 0.98
PbLuc_max_inhibition (%) [1]: 57%

C[C@H](CO)N1C[C@H](C)[C@H](CN(C)S(=O)(=O)c2ccc(F)cc2)OCCCC[C@H](C)Oc2ccc(N(C)C)cc2C1=O [BRD-K59130783-001-01-1]
IC50 (HepG2-A16-CD81EGFP cells): > 10 µM
Tox_max_inhibition (%) (HepG2-A16-CD81EGFP cells): 7%
normalized signal at concentration 0.000508053 ([1]; first series of columns): 0.8293
normalized signal at concentration 0.00152416 ([1]; first series of columns): 0.8148
normalized signal at concentration 0.00457247 ([1]; first series of columns): 0.8395
normalized signal at concentration 0.0137174 ([1]; first series of columns): 0.9506
normalized signal at concentration 0.0411523 ([1]; first series of columns): 0.8723
normalized signal at concentration 0.123457 ([1]; first series of columns): 1.0641
normalized signal at concentration 0.37037 ([1]; first series of columns): 0.9674
normalized signal at concentration 1.11111 ([1]; first series of columns): 0.9129
normalized signal at concentration 3.33333 ([1]; first series of columns): 0.9251
normalized signal at concentration 10 ([1]; first series of columns): 0.7483
IC50 [1, 2]: > 10 µM
normalized signal at concentration 0.000508053 [1, 3]: 1.007
normalized signal at concentration 0.00152416 [1, 3]: 0.9488
normalized signal at concentration 0.00457247 [1, 3]: 0.9241
normalized signal at concentration 0.0137174 [1, 3]: 0.9817
normalized signal at concentration 0.0411523 [1, 3]: 0.8684
normalized signal at concentration 0.123457 [1, 3]: 0.9044
normalized signal at concentration 0.37037 [1, 3]: 1.051
normalized signal at concentration 1.11111 [1, 3]: 0.8044
normalized signal at concentration 3.33333 [1, 3]: 0.946
normalized signal at concentration 10 [1, 3]: 0.5139
PbLuc_max_inhibition (%) [1]: 49%

O=C(O)C[C@H]1CC[C@@H]2[C@H](COC[C@@H](O)CN2S(=O)(=O)c2ccc(Oc3ccccc3)cc2)O1 [BRD-K61788733-001-01-3]
IC50 (HepG2-A16-CD81EGFP cells): > 10 µM
Tox_max_inhibition (%) (HepG2-A16-CD81EGFP cells): 4.62%
normalized signal at concentration 0.000508053 ([1]; first series of columns): 0.8641
normalized signal at concentration 0.00152416 ([1]; first series of columns): 0.8788
normalized signal at concentration 0.00457247 ([1]; first series of columns): 0.8741
normalized signal at concentration 0.0137174 ([1]; first series of columns): 0.9455
normalized signal at concentration 0.0411523 ([1]; first series of columns): 0.9154
normalized signal at concentration 0.123457 ([1]; first series of columns): 0.9561
normalized signal at concentration 0.37037 ([1]; first series of columns): 0.927
normalized signal at concentration 1.11111 ([1]; first series of columns): 1.099
normalized signal at concentration 3.33333 ([1]; first series of columns): 1.256
normalized signal at concentration 10 ([1]; first series of columns): 1.046
IC50 [1, 2]: > 10 µM
normalized signal at concentration 0.000508053 [1, 3]: 1.03
normalized signal at concentration 0.00152416 [1, 3]: 0.992
normalized signal at concentration 0.00457247 [1, 3]: 0.8804
normalized signal at concentration 0.0137174 [1, 3]: 0.7616
normalized signal at concentration 0.0411523 [1, 3]: 1.066
normalized signal at concentration 0.123457 [1, 3]: 0.77
normalized signal at concentration 0.37037 [1, 3]: 0.8648
normalized signal at concentration 1.11111 [1, 3]: 0.993
normalized signal at concentration 3.33333 [1, 3]: 1.071
normalized signal at concentration 10 [1, 3]: 1.076
PbLuc_max_inhibition (%) [1]: 24%
